Data taken from publication PMC5064022, “KCNE1 induces fenestration in the Kv7.1/KCNE1 channel complex that allows for highly specific pharmacological targeting” (Nature Communications, 2016).

Legend:
V241A/KCNE1 = V241A/KCNE1 (Homo sapiens, UniProt P15382+P51787, V241A); assay: TEVC, mutant channel V241A/KCNE1 in oocytes; format: cell-based; settings: Kv7.1 V241A mutant with KCNE1
Excerpt: Ala scanning was previously used to identify specific residues that form the putative binding sites for chromanol and benzodiazepine derivatives that are considered to be classical pore blockers of Kv7.1 channels. Here we applied Ala scanning to multiple segments of the Kv7.1 α-subunit to identify potential AC-1 interaction sites in the extended pore region of Kv7.1/KCNE1 channels (Fig. 3a). In cases where mutation to Ala precluded channel function, alternative residues were introduced. […] Instead, most of these crucial residues cluster around a ‘window' formed uniquely in the preopen–closed state model of the Kv7.1/KCNE1 channel[33] (Fig. 3c, magenta residues). […]
Template cDNAs (wildtype or mutant human Kv7.1 in pSGEM, wildtype human KCNE1 in pSP64) were linearized with a suitable restriction enzyme (Nhe I/pSGEM, Eco RI/pSP64). cRNA was synthesized from 1 μg linearized cDNA by in vitro transcription (mMessage mMachine T7 or SP6 kit, Ambion, Life Technologies Darmstadt, Germany). cRNA concentrations were determined by photometry (Nanodrop, Peqlab, Erlangen, Germany) and cRNA quality was checked by agarose gel electrophoresis. […]
TEVC measurements were performed using a TurboTec-10CD amplifier (npi Electronic, Tamm, Germany) and an ITC-16 AD/DA-interface (Instrutech Corporation, Port Washington, New York, USA). […] Tail currents were recorded at −120 mV. […]

Kv7.1/KCNE1 = Kv7.1/KCNE1 (Homo sapiens, UniProt P15382+P51787); assay: Two electrode voltage clamp of Kv7.1/KCNE1 currents in Xenopus oocytes; format: cell-based
Description: Template cDNAs (wildtype or mutant human Kv7.1 in pSGEM, wildtype human KCNE1 in pSP64) were linearized with a suitable restriction enzyme (Nhe I/pSGEM, Eco RI/pSP64). cRNA was synthesized from 1 μg linearized cDNA by in vitro transcription (mMessage mMachine T7 or SP6 kit, Ambion, Life Technologies Darmstadt, Germany). cRNA concentrations were determined by photometry (Nanodrop, Peqlab, Erlangen, Germany) and cRNA quality was checked by agarose gel electrophoresis.
Oocytes were commercially obtained from EcoCyte Bioscience (Castrop-Rauxel, Germany). Injection of stage 4 or 5 oocytes was performed using a nanoliter injector 2000 (WPI, Berlin, Germany). For standard pharmacological measurements, each oocyte was injected with 5 ng Kv7.1 cRNA alone or with 1 ng KCNE1 cRNA. To investigate the influence of KCNE1 on AC-1 sensitivity of Kv7.1 tetramers, 5 ng Kv7.1 cRNA was injected with different amounts of KCNE1 cRNA (0 ng, 0.005 ng, 0.05 ng, 0.5 ng and 5 ng). Injected oocytes were maintained in an incubator at 17 °C for 4–5 days in standard Barth solution (EcoCyte Bioscience, Castrop-Rauxel, Germany) supplemented with 90 μg ml^−1 theophylline, 63 μg ml^−1 penicillin, 40 μg ml^−1 streptomycin, and 100 μg ml^−1 gentamycin until used for two electrode voltage clamp (TEVC) measurements.
TEVC measurements were performed using a TurboTec-10CD amplifier (npi Electronic, Tamm, Germany) and an ITC-16 AD/DA-interface (Instrutech Corporation, Port Washington, New York, USA). Pulse and PulseFit software (HEKA, Lambrecht/Pfalz, Germany) was used for data acquisition and analysis. During TEVC recordings, oocytes were constantly perfused with control solution (ND96, containing in mM: 96 NaCl, 4 KCl, 1.8 CaCl2, 1 MgCl2, 5 mM HEPES, pH 7.6 supplemented 0.1–0.3% DMSO). AC solutions were freshly prepared in ND96 from a 10 mM DMSO stock solution. Glass capillaries were pulled to a fine point to produce current and voltage electrodes that were back-filled with 3 M KCl. When filled with this solution, electrode resistances ranged from 0.5–1.5 MΩ. Different voltage pulse protocols were used as follows: (1) To study the inhibitory effect of different AC derivatives, Kv7.1/KCNE1 currents were elicited by repetitive 7 s pulses to +40 mV applied every 30 s from a holding potential of −80 mV. (2) To analyse the voltage dependence of channel activation, currents were elicited by 10 s pulses to test voltages between −100 and +60 mV, applied in 20 mV increments from a holding potential of −80 mV. Tail currents were recorded at −120 mV. For control we always expressed KCNE1 alone along mutant channels and mutant currents were only taken into account when it reached at least 2.5- to 3-fold the size of the background Xenopus-Kv7.1/hKCNE1 currents.
Electrophysiological data were analysed using PulseFit software (HEKA, Lambrecht/Pfalz, Germany) and GraphPad Prism (GraphPad Software, Inc., La Jolla, California, USA). Channel inhibition was determined as reduction of whole cell current amplitude at the end of a 7 s test pulse to +40 mV. The concentration of compound that caused half-maximal inhibition (IC50) were determined using the Hill equation: Idrug/Imax=1/(1+[C/IC50]^H), where Idrug is the current amplitude in the presence of the drug, Imax is the current amplitude before drug application, C is the drug concentration and H is the Hill coefficient.

Structure (SMILES): CC(C)(Oc1ccc(Cl)cc1)C(=O)NC1C2CC3CC1CC(NS(C)(=O)=O)(C3)C2 (stereo not shown) [AC-1, 2-(4-chlorophenoxy)-2-methyl-N-[5-[(methylsulfonyl)amino]tricyclo[3.3.1.13,7]dec-2-yl]-propanamide]
- IC50 (V241A/KCNE1): 234 ± 15 nM
- effect on channel activation kinetics (Kv7.1/KCNE1; 300 nM): strong deceleration of channel activation
- effect on rate of current deactivation (Kv7.1/KCNE1; 300 nM, activated by 5 s pulse to +40 mV): does not alter the rate of current deactivation
- effect on rate of current deactivation (Kv7.1/KCNE1; 300 nM, activated by 5 s pulse to −20 mV): decreases the rate of current deactivation
- inhibition at 10 µM (Kv7.1/KCNE1; 10 µM, percent change in current amplitude at end of pulse to +40 mV): 89.2 ± 1.2%
- Hill-coeff. (Kv7.1/KCNE1; concentration-response at +40 mV, oocytes): 1.2 ± 0.1
- maximum reduction of Kv7.1/KCNE1 channel currents (Kv7.1/KCNE1; even at concentrations ∼100-fold greater than the IC50): about 90%
- higher voltages required to elicit measurable channel opening (depolarizing shift of activation) (Kv7.1/KCNE1; in the presence of AC-1 (300 nM)): 20–40 mV
- slope m of linear fit of τinhibition against AC-1 concentration (Kv7.1/KCNE1; onset of inhibition, single exponential, y=m × log[AC−1]+b): −1.02±0.19
- IC50 (Kv7.1/KCNE1; wt, currents at end of 7 s pulse to +40 mV, holding −80 mV, oocytes, read-out: IC50 for inhibition of Kv7.1/KCNE1 channel currents): 78.4 nM
